# Source: PubChem BioAssay (NCI)
#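 Tested at 5 concentrations; 48 h exposure; 96-well plates; endpoints linearly interpolated, else capped at highest concentration. TGI: concentration producing complete growth inhibition.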
# Legend:
# Assay in all cases: NCI-60 cell line screen, 48 h
# LOX IMVI melanoma = system: LOX IMVI melanoma
# ACHN renal = system: ACHN renal
# HS 578T breast = system: HS 578T breast
# U251 CNS = system: U251 CNS
# CAKI-1 renal = system: CAKI-1 renal
# BT-549 breast = system: BT-549 breast
# T-47D breast = system: T-47D breast
# NCI-H460 lung = system: NCI-H460 lung
# SNB-19 CNS = system: SNB-19 CNS
# TK-10 renal = system: TK-10 renal
# SK-MEL-5 melanoma = system: SK-MEL-5 melanoma
# 786-0 renal = system: 786-0 renal
# SF-268 CNS = system: SF-268 CNS
# DU-145 prostate = system: DU-145 prostate
# OVCAR-5 ovarian = system: OVCAR-5 ovarian
# OVCAR-3 ovarian = system: OVCAR-3 ovarian
# OVCAR-8 ovarian = system: OVCAR-8 ovarian
# SK-MEL-28 melanoma = system: SK-MEL-28 melanoma
# SF-539 CNS = system: SF-539 CNS
# A498 renal = system: A498 renal
# HOP-92 NSCLC = system: HOP-92 NSCLC
# UO-31 renal = system: UO-31 renal
# MDA-MB-231 breast = system: MDA-MB-231 breast
# A549 NSCLC = system: A549 NSCLC
# HCC-2998 colon = system: HCC-2998 colon
# HOP-62 NSCLC = system: HOP-62 NSCLC
# M14 melanoma = system: M14 melanoma
# RPMI-8226 leukemia = system: RPMI-8226 leukemia
# PC-3 prostate = system: PC-3 prostate
# K-562 leukemia = system: K-562 leukemia
# IGROV1 ovarian = system: IGROV1 ovarian
# COLO 205 colon = system: COLO 205 colon
# HCT-116 colon = system: HCT-116 colon
# CCRF-CEM leukemia = system: CCRF-CEM leukemia
# MCF7 breast = system: MCF7 breast
# MDA-MB-435 = system: MDA-MB-435
# MOLT-4 leukemia = system: MOLT-4 leukemia
# SW-620 colon = system: SW-620 colon
# SF-295 CNS = system: SF-295 CNS
# SN12C renal = system: SN12C renal
# SK-OV-3 ovarian = system: SK-OV-3 ovarian
# HL-60(TB) leukemia = system: HL-60(TB) leukemia
# HT29 colon = system: HT29 colon
# HCT-15 colon = system: HCT-15 colon
# UACC-257 melanoma = system: UACC-257 melanoma
# UACC-62 melanoma = system: UACC-62 melanoma
# KM12 colon = system: KM12 colon
# NCI/ADR-RES ovarian = system: NCI/ADR-RES ovarian
# EKVX NSCLC = system: EKVX NSCLC
# SNB-75 CNS = system: SNB-75 CNS
# MDA-N = system: MDA-N
# SK-MEL-2 melanoma = system: SK-MEL-2 melanoma
# OVCAR-4 ovarian = system: OVCAR-4 ovarian
# NCI-H226 lung = system: NCI-H226 lung
# MALME-3M melanoma = system: MALME-3M melanoma
# NCI-H23 lung = system: NCI-H23 lung
# RXF 393 renal = system: RXF 393 renal
# NCI-H522 lung = system: NCI-H522 lung
# SR leukemia = system: SR leukemia
smiles,measurement,setting,value
CSc1ccc(C=C2N=C(c3ccccc3)N(c3cc(C(=O)c4ccccc4)ccc3N3C(=O)/C(=C/c4ccc(SC)cc4)N=C3c3ccccc3)C2=O)cc1,TGI,LOX IMVI melanoma,> 100 µM
same,TGI,ACHN renal,> 100 µM
same,TGI,HS 578T breast,> 100 µM
same,TGI,U251 CNS,> 100 µM
same,TGI,CAKI-1 renal,> 100 µM
same,TGI,BT-549 breast,> 100 µM
same,TGI,T-47D breast,> 100 µM
same,TGI,NCI-H460 lung,> 100 µM
same,TGI,SNB-19 CNS,> 100 µM
same,TGI,TK-10 renal,> 100 µM
same,TGI,SK-MEL-5 melanoma,> 100 µM
same,TGI,786-0 renal,> 100 µM
same,TGI,SF-268 CNS,> 100 µM
same,TGI,DU-145 prostate,> 100 µM
same,TGI,OVCAR-5 ovarian,> 100 µM
same,TGI,OVCAR-3 ovarian,55.1 µM
same,TGI,OVCAR-8 ovarian,> 100 µM
same,TGI,SK-MEL-28 melanoma,> 100 µM
same,TGI,SF-539 CNS,79.5 µM
same,TGI,A498 renal,> 100 µM
same,TGI,HOP-92 NSCLC,> 100 µM
same,TGI,UO-31 renal,> 100 µM
same,TGI,MDA-MB-231 breast,> 100 µM
same,TGI,A549 NSCLC,> 100 µM
same,TGI,HCC-2998 colon,> 100 µM
same,TGI,HOP-62 NSCLC,> 100 µM
same,TGI,M14 melanoma,> 100 µM
same,TGI,RPMI-8226 leukemia,> 100 µM
same,TGI,PC-3 prostate,> 100 µM
same,TGI,K-562 leukemia,> 100 µM
same,TGI,IGROV1 ovarian,> 100 µM
same,TGI,COLO 205 colon,> 100 µM
same,TGI,HCT-116 colon,> 100 µM
same,TGI,CCRF-CEM leukemia,62.4 µM
same,TGI,MCF7 breast,> 100 µM
same,TGI,MDA-MB-435,> 100 µM
same,TGI,MOLT-4 leukemia,> 100 µM
same,TGI,SW-620 colon,> 100 µM
same,TGI,SF-295 CNS,> 100 µM
same,TGI,SN12C renal,> 100 µM
same,TGI,SK-OV-3 ovarian,> 100 µM
same,TGI,HL-60(TB) leukemia,> 100 µM
same,TGI,HT29 colon,> 100 µM
same,TGI,HCT-15 colon,> 100 µM
same,TGI,UACC-257 melanoma,> 100 µM
same,TGI,UACC-62 melanoma,> 100 µM
same,TGI,KM12 colon,> 100 µM
same,TGI,NCI/ADR-RES ovarian,> 100 µM
same,TGI,EKVX NSCLC,> 100 µM
same,TGI,SNB-75 CNS,61.5 µM
same,TGI,MDA-N,> 100 µM
same,TGI,SK-MEL-2 melanoma,> 100 µM
same,TGI,OVCAR-4 ovarian,> 100 µM
COc1cc(O)c2c(=O)cc(C3(OC(C)=O)C=CC(OC4OC(CO)C(O)C(O)C4O)C=C3)oc2c1 (stereo not given),TGI,LOX IMVI melanoma,> 100 µM
same,TGI,ACHN renal,> 100 µM
same,TGI,U251 CNS,> 100 µM
same,TGI,CAKI-1 renal,> 100 µM
same,TGI,NCI-H226 lung,> 100 µM
same,TGI,BT-549 breast,> 100 µM
same,TGI,T-47D breast,> 100 µM
same,TGI,NCI-H460 lung,> 100 µM
same,TGI,SNB-19 CNS,> 100 µM
same,TGI,TK-10 renal,> 100 µM
same,TGI,SK-MEL-5 melanoma,> 100 µM
same,TGI,786-0 renal,> 100 µM
same,TGI,DU-145 prostate,> 100 µM
same,TGI,OVCAR-5 ovarian,> 100 µM
same,TGI,OVCAR-3 ovarian,> 100 µM
same,TGI,OVCAR-8 ovarian,> 100 µM
same,TGI,SK-MEL-28 melanoma,> 100 µM
same,TGI,SF-539 CNS,> 100 µM
same,TGI,A498 renal,> 100 µM
same,TGI,HOP-92 NSCLC,> 100 µM
same,TGI,UO-31 renal,> 100 µM
same,TGI,MDA-MB-231 breast,> 100 µM
same,TGI,A549 NSCLC,> 100 µM
same,TGI,HCC-2998 colon,> 100 µM
same,TGI,HOP-62 NSCLC,> 100 µM
same,TGI,M14 melanoma,> 100 µM
same,TGI,RPMI-8226 leukemia,> 100 µM
same,TGI,MALME-3M melanoma,> 100 µM
same,TGI,PC-3 prostate,> 100 µM
same,TGI,K-562 leukemia,> 100 µM
same,TGI,IGROV1 ovarian,> 100 µM
same,TGI,COLO 205 colon,> 100 µM
same,TGI,HCT-116 colon,> 100 µM
same,TGI,CCRF-CEM leukemia,> 100 µM
same,TGI,NCI-H23 lung,> 100 µM
same,TGI,MCF7 breast,> 100 µM
same,TGI,MDA-MB-435,> 100 µM
same,TGI,MOLT-4 leukemia,> 100 µM
same,TGI,SW-620 colon,> 100 µM
same,TGI,SF-295 CNS,> 100 µM
same,TGI,SN12C renal,> 100 µM
same,TGI,RXF 393 renal,> 100 µM
same,TGI,SK-OV-3 ovarian,> 100 µM
same,TGI,HL-60(TB) leukemia,> 100 µM
same,TGI,HT29 colon,> 100 µM
same,TGI,HCT-15 colon,> 100 µM
same,TGI,NCI-H522 lung,> 100 µM
same,TGI,UACC-257 melanoma,> 100 µM
same,TGI,UACC-62 melanoma,> 100 µM
same,TGI,SR leukemia,> 100 µM
same,TGI,KM12 colon,> 100 µM
same,TGI,NCI/ADR-RES ovarian,> 100 µM
same,TGI,EKVX NSCLC,> 100 µM
same,TGI,SNB-75 CNS,> 100 µM
same,TGI,MDA-N,> 100 µM
same,TGI,SK-MEL-2 melanoma,> 100 µM
same,TGI,OVCAR-4 ovarian,> 100 µM
